Test results: publication PMC12040169 (PLOS Biology, 2025)

Assay: in vitro
Settings: human, hela cells, % viability

Compound | viability at 28.5 h, 10 µM
COc1ccc(NC2=NC(=O)CC(C(=O)Nc3ccc(C)c(C)c3)N2)cc1 (stereo not shown) [CBK269359] | 104%
CSc1nsc(SCC(=O)N(c2ccccc2)c2ccccc2)n1 [CBK269361] | 95.3%
Cc1nc(C)n(CCc2nc3ccccc3[nH]2)n1 [CBK269364] | 105%
CCC1CCCCN1Cc1nc2c(c(=O)n(C)c(=O)n2C)n1CCCO (stereo not shown) [CBK269365] | 91.8%
Cn1c(=O)[nH]c(=O)c2c1nc(N1CCOCC1)n2CCCSc1nc2ccccc2s1 [CBK269368] | 92.7%
O=C(NCCCNC(=O)c1ccc(Cl)cc1Cl)c1ccncc1 [CBK269372] | 89.7%
CCN(CC(=O)N1CCN(C)CC1)S(=O)(=O)c1ccc(OC)cc1 [CBK269374] | 89.2%
COc1ccc2ccccc2c1CNc1ccc(N2CCOCC2)c(C(=O)O)c1 [CBK269376] | 94.1%
COCCn1c(CN2CCC(Cc3ccccc3)CC2)nc2c1c(=O)n(C)c(=O)n2C [CBK269378] | 99.1%
Cn1c(=O)c2c(nc(CN3CCC(Cc4ccccc4)CC3)n2CCN2CCOCC2)n(C)c1=O [CBK269380] | 100%
COc1ccc(S(=O)(=O)NC(C)C(=O)NCc2cccnc2)cc1Cl (stereo not shown) [CBK269384] | 95.8%
CS(=O)(=O)N(CC(=O)NCc1ccccn1)c1ccc2c(c1)OCO2 [CBK269385] | 87.2%
N#CCSc1nc(-c2cccnc2)ccc1C(=O)O [CBK269387] | 106%
FC(F)(F)c1cc(-c2ccccc2)nc2onc(OCCN3CCOCC3)c12 [CBK269392] | 90.9%
OCc1cc(Cl)c(Cl)c(CO)c1O [CBK269397] | 95.5%
COc1ccccc1-c1noc(C2CCN(S(=O)(=O)c3ccc(F)cc3)CC2)n1 [CBK269401] | 92.9%
O=C(O)CCN1CCN(S(=O)(=O)c2ccccc2)CC1 [CBK269402] | 106%
O=C(Nc1ccc(Cl)cc1)Nc1cccc(C(=O)O)c1 [CBK269404] | 98.7%
O=C(CSc1ncnc2c1cnn2-c1ccccc1)Nc1ccccc1 [CBK269408] | 96.4%
Cc1ccc2nsnc2c1NC(=O)CSc1nccn1C [CBK269411] | 104%
Cc1ccc(C2c3c(O)n[nH]c3CC(C)(O)C2C(=O)OCc2ccccc2)cc1 (stereo not shown) [CBK269417] | 92.8%
Cc1c(NC(=O)CSc2nncn2C)ccc2nsnc12 [CBK269418] | 104%

Compound | viability at 28.5 h, 10 µM
Cc1nnc(SCCn2c(N3CC(C)CC(C)C3)nc3c2c(=O)n(C)c(=O)n3C)s1 (stereo not shown) [CBK269419] | 100%
Cc1cccc(NC(=O)NCc2ccccn2)c1 [CBK269422] | 92.3%
CN1CCN(c2ccc(NC(=O)c3cc([N+](=O)[O-])ccc3N3CCOCC3)cc2)CC1 [CBK269425] | 95.6%
CC(Nc1nc(N2CCN(CCO)CC2)nc2ccccc12)c1ccccc1 (stereo not shown) [CBK269427] | 106%
O=C(NCCCNC(=O)c1ccc(Br)o1)c1ccccn1 [CBK269430] | 107%
COC(=O)c1c(NC(=O)C(=O)NCc2ccccn2)sc2c1CCC2 [CBK269431] | 94.6%
CN(CC(=O)C(C#N)c1ccccc1)Cc1ccccc1 (stereo not shown) [CBK269432] | 96.8%
COc1cccc2cc(C(=O)C3=C(O)C(=O)N(CCN4CCOCC4)C3c3cccs3)oc12 (stereo not shown) [CBK269433] | 101%
CS(=O)(=O)N(Cc1ccco1)Cc1cc2ccccc2nc1O [CBK269434] | 111%
N#CC1=C(Nc2ccccc2)Oc2cc(N)ccc2C1c1cccnc1 (stereo not shown) [CBK269435] | 100%
CCN(CC(=O)N1CCN(Cc2ccc3c(c2)OCO3)CC1)S(=O)(=O)c1ccccc1 [CBK269436] | 92.3%
Cn1c(=O)c2c(nc(CN3CCN(C(=O)c4ccco4)CC3)n2Cc2ccccc2)n(C)c1=O [CBK269437] | 93%
Cc1cc(Cl)ccc1NC(=O)CN1CCN(Cc2ccccc2)CC1 [CBK269438] | 93.6%
O=C(Cn1c(-c2cncs2)nc2ccccc21)Nc1ccc(C(=O)N2CCCCC2)cc1 [CBK269439] | 102%
CN(Cc1ccccc1)Cc1nc2c([nH]1)c(=O)[nH]c(=O)n2C [CBK269442] | 106%
Cc1ccc(S(=O)(=O)N2CCN(CCC(=O)O)CC2)cc1 [CBK269443] | 97.1%
O=C(O)c1ccc(NC(=O)c2ncn(-c3ccccc3)n2)cc1 [CBK269445] | 97.7%
O=c1c2c3c(sc2ncn1CC(O)CO)CCCC3 (stereo not shown) [CBK269448] | 94.8%
COc1ccc(Br)cc1CNCc1ccc(C(=O)O)cc1 [CBK269449C] | 96.2%
COc1ccc(N2CCN(Cc3nc4c(c(=O)n(C)c(=O)n4C)n3C(C)C(C)=O)CC2)cc1 (stereo not shown) [CBK269453] | 88.7%
CN(C)CC(=O)Nc1ccc(Oc2ccc(Cl)cc2)cc1 [CBK269459C] | 94.9%
O=S(=O)(NCc1nc2ccccc2[nH]1)c1ccccc1 [CBK269460] | 94.6%

Compound | viability at 28.5 h, 10 µM
Cn1c(=O)n(C)c2cc(CNc3ccc(N4CCOCC4)c(C(=O)O)c3)ccc21 [CBK269463] | 84.7%
O=c1c2c3nc4ccccc4nc3n(CCc3ccccc3)c2ncn1C1CCCC1 [CBK269464] | 105%
COc1ccc(N2CCN(Cc3nc4c(c(=O)n(C)c(=O)n4C)n3CC(C)=O)CC2)cc1 [CBK269465] | 103%
CCOC(=O)CSc1nc(C)cc(Oc2ccc(=O)n(C)n2)n1 [CBK269476] | 101%
Cc1ccc(C(=O)NCCCNC(=O)c2ccncc2)cc1 [CBK269477] | 86%
Cc1[nH]c2ccccc2c1C(CC(=O)c1ccc(Br)cc1)C(=O)O (stereo not shown) [CBK269480] | 90.9%
O=C1NC2CCCCC2NC1CC(=O)N1CCN(Cc2ccccc2)CC1 (stereo not shown) [CBK269484] | 92.5%
N#Cc1c(NC(=O)C(=O)NCc2cccnc2)sc2c1CCCC2 [CBK269485] | 91%
COC(=O)c1ccc(NC(=O)c2ccc(-n3cccn3)cc2)cc1 [CBK269486] | 90.7%
Cc1ccccc1Cn1c(CN2CCN(c3ccccc3)CC2)nc2c1c(=O)n(C)c(=O)n2C [CBK269488] | 94.6%
Fc1ccc(-c2cc(C(F)(F)F)nc(NCC3CCCO3)n2)cc1 (stereo not shown) [CBK269492] | 89.1%
Cc1cccnc1NC(=O)c1ccc(NC(C)C)c([N+](=O)[O-])c1 [CBK269494] | 86.1%
O=C(Nc1ccc(N2CCN(C(=O)c3ccccc3F)CC2)cc1)c1nc[nH]n1 [CBK269497] | 107%
COc1ccc(C(=O)COc2nc3c(C(F)(F)F)cc(C4CC4)nc3o2)cc1 [CBK269498] | 87%
Cn1c(=O)[nH]c(=O)c2c1nc(NC1CCCCC1)n2CCCc1ccccc1 [CBK269500] | 92.7%
COc1ccccc1/C=C/c1nn2c(C(C)C)nnc2s1 [CBK269501] | 79.3%
O=c1c2c3nc4ccccc4nc3n(CCc3ccccc3)c2ncn1Cc1ccco1 [CBK269502] | 77.5%
COc1cccc(/C=C/c2nc(C#N)c(NCCCN3CCOCC3)o2)c1 [CBK269506] | 107%
CN1CCN(Cc2nc3c(c(=O)n(C)c(=O)n3C)n2CCc2ccccc2)CC1 [CBK269507] | 96.2%
Cc1ccc2[nH]c(SCc3nc(-c4cccs4)no3)nc2c1 [CBK269509] | 108%
O=C(COc1ccc(S(=O)(=O)N2CCCCC2)cc1Cl)N1CCc2ccccc2C1 [CBK269510] | 88%
CCOc1cc(-c2noc(CCC(=O)N3CCN(C)CC3)n2)ccc1OC [CBK269513] | 105%

Compound | viability at 28.5 h, 10 µM
O=C(CN1CCN(S(=O)(=O)N2CCCCC2)CC1)Nc1ccc(Br)cc1 [CBK269515] | 91.7%
O=C(Nc1cccc(Cl)c1)Nc1ccc(C(=O)O)c(O)c1 [CBK269518] | 94.2%
Cn1c(=O)c2[nH]c(CN3CCN(Cc4ccccc4)CC3)nc2n(C)c1=O [CBK269519] | 86.3%
COc1cccc(-c2coc3cc4oc(=O)c(CC(=O)O)c(C)c4cc23)c1 [CBK269520] | 86.6%
Cn1c(=O)c2c(nc(CN3CCCCC3)n2CCCc2ccccc2)n(C)c1=O [CBK269521] | 96.5%
Cc1cc(S(=O)(=O)NCCCn2ccnc2)c(C)cc1Br [CBK269525] | 91.8%
COc1ccc(NC(=O)COc2noc3nc(C)c(C)c(C)c23)cc1OC [CBK269526] | 108%
NC(=O)C1CCN(CC(O)COc2ccc(-c3ccccc3)cc2)CC1 (stereo not shown) [CBK269528] | 89.9%
Cn1c(=O)[nH]c(=O)c2c1nc(N1CCN(Cc3ccccc3)CC1)n2CCCc1ccccc1 [CBK269529] | 104%
O=C(NCCCN1CCOCC1)NC(=O)c1ccc(Cl)cc1 [CBK269531] | 96.4%
CCN1CCN(c2ccc(NC(=O)Cn3cnc4c(=O)n(C)c(=O)n(C)c43)cc2Cl)CC1 [CBK269535] | 94.3%
COc1cc(CNc2nn[nH]n2)ccc1OCc1ccc(F)cc1Cl [CBK269536] | 90.6%
CCN(CC(=O)NCc1ccncc1)S(=O)(=O)c1ccccc1 [CBK269537] | 88.7%
CCCCn1cnc2c(c1=O)c1nc3ccccc3nc1n2CCc1ccc(OC)cc1 [CBK269538] | 85.7%
O=C(COc1ccc(S(=O)(=O)N2CCCCC2)cc1Cl)Nc1ccc2c(c1)OCCO2 [CBK269540] | 97%
O=C(CC(C(=O)O)n1cccn1)c1ccc(Br)cc1 (stereo not shown) [CBK269541] | 90.8%
COc1cc(CNC(C)(C)CO)c(Cl)cc1OC(C)C [CBK269542] | 89.9%
Cc1cccnc1NC(=O)c1ccc(NCCc2ccccc2)c([N+](=O)[O-])c1 [CBK269543] | 96.1%
CCN(CC(=O)NCc1ccccn1)S(=O)(=O)c1ccccc1 [CBK269546] | 90.2%
Cc1cc2c(cc1C)NC(CC(=O)Nc1cccc(Br)c1)C(=O)N2 (stereo not shown) [CBK269548] | 73.3%
CCn1c(CCCNC=O)nc2ccccc21 [CBK269551] | 86.2%
COc1ccc(N2CCN(Cc3nc4c(c(=O)n(C)c(=O)n4C)n3Cc3cccc(C)c3)CC2)cc1 [CBK269552] | 78.4%
